According to patent US6911443B2 (Bayer Aktiengesellschaft, priority 2000, dated 2005):

These compounds were tested against T1, human Syk (GST-Syk) (Homo sapiens, UniProt P43405) (assay: Syk tyrosine kinase inhibitory assay). Details: Table 13; read-out: Activity grade.
T1 construct: A cDNA fragment encoding human Syk openreading frame was cloned; made in house; host or cells: Sf21 insect cells (baculovirus, transfer vector pAcG2T)
Assay type: biochemical
Procedure, shortened: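 Readout: streptavidin-captured biotin-AL peptide probed with europium-4G10 anti-phosphotyrosine, time-resolved fluorescence (ex 340/em 615 nm). Reaction ran 1 h at room temperature with 30 μM ATP, 3 μM peptide, 0.65 nM Sf21-expressed GST-Syk and 0.25% DMSO, pH 8.0.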

IC50	Compound
< 500 nM	COc1ccc(-c2cc3nccn3c(SCC(C)C)n2)cc1OC [Example 14-22]
500 to 2000 nM	CCC(C)CSc1nc(-c2ccc(OC)c(OC)c2)cc2nccn12 (stereo not drawn) [Example 14-23]
500 to 2000 nM	COc1ccc(-c2cc3nccn3c(SCCNC(=O)OC(C)(C)C)n2)cc1OC [Example 14-24]
500 to 2000 nM	COc1ccc(-c2cc3nccn3c(SCCc3ccccc3)n2)cc1OC [Example 14-25]
500 to 2000 nM	CCCCCSc1nc(-c2ccc(OC)c(OC)c2)cc2nccn12 [Example 14-26]
< 500 nM	COc1ccc(-c2cc3nccn3c(SCCN(C)C)n2)cc1OC [Example 14-27]
500 to 2000 nM	COc1ccc(-c2cc3nccn3c(SCCC(C)C)n2)cc1OC [Example 14-28]
< 500 nM	COc1ccc(-c2cc3nccn3c(SC3CCCCC3)n2)cc1OC [Example 14-29]
500 to 2000 nM	COc1ccc(-c2cc3nccn3c(SCc3ccc(F)cc3)n2)cc1OC [Example 14-30]
< 500 nM	COc1ccc(-c2cc3nccn3c(SCc3cccs3)n2)cc1OC [Example 14-31]
< 500 nM	COc1ccc(-c2cc3nccn3c(SCCc3cnccn3)n2)cc1OC [Example 14-32]
< 500 nM	CNC(=O)CSc1nc(-c2ccc(OC)c(OC)c2)cc2nccn12 [Example 14-33]
500 to 2000 nM	COc1ccc(-c2cc3nccn3c(Sc3ccc(CCC(=O)O)cc3C(N)=O)n2)cc1OC [Example 14-35]
2000 to 10000 nM	COC(=O)c1cccnc1Nc1nc(-c2ccc(OC)c(OC)c2)cc2nccn12 [Example 14-36]

Same assay, conditions: Table 14; read-out: Activity grade

IC50	Compound
< 500 nM	COc1ccc(-c2cc3nccn3c(Sc3ccc(C(F)(F)F)cn3)n2)cc1OC [Example 15-1]
< 500 nM	COc1ccc(-c2cc3nccn3c(Sc3ccncc3C(=O)O)n2)cc1OC [Example 15-2]
< 500 nM	COc1ccc(-c2cc3nccn3c(Sc3ccc(SCC(=O)O)cc3)n2)cc1OC [Example 15-3]
500 to 2000 nM	COc1ccc(-c2cc3nccn3c(NC3CCCCC3)n2)cc1OC [Example 15-4]

Same assay, conditions: Table 15; read-out: Activity grade

IC50	Compound
< 500 nM	COc1ccc(-c2cc3nccn3c(Sc3nnnn3C)n2)cc1OC [Example 16-1]
< 500 nM	COc1ccc(-c2cc3nccn3c(Sc3ccc(S(=O)(=O)N4CCCCC4)cc3)n2)cc1OC [Example 16-2]
< 500 nM	COc1ccc(-c2cc3nccn3c(Sc3ccc(S(=O)(=O)N4CCCC4)cc3)n2)cc1OC [Example 16-5]
< 500 nM	COc1ccc(-c2cc3nccn3c(Sc3ccncc3N)n2)cc1OC [Example 16-7]

Same assay, conditions: Table 16; read-out: Activity grade

IC50	Compound
500 to 2000 nM	CCSc1nc(-c2ccc(OC)c(NCCCCN(C)C)c2)cc2nccn12 [Example 17-1]
500 to 2000 nM	CCSc1nc(-c2ccc(OC)c(NC)c2)cc2nccn12 [Example 17-2]
< 500 nM	CCSc1nc(-c2ccc(NCCCN3CCCC3=O)c(OC)c2)cc2nccn12 [Example 17-3]
< 500 nM	CCSc1nc(-c2ccc(NCCCN3CCN(C)CC3)c(OC)c2)cc2nccn12 [Example 17-4]
500 to 2000 nM	CCSc1nc(-c2ccc(OC)c(N(C)CCCN(C)C)c2)cc2nccn12 [Example 17-5]
< 500 nM	CCSc1nc(-c2ccc(OC)c(NCCCN(C)C)c2)cc2nccn12 [Example 17-6]
500 to 2000 nM	CCSc1nc(-c2ccc(NCCN(C)C)c(OC)c2)cc2nccn12 [Example 17-7]
500 to 2000 nM	CCSc1nc(-c2ccc(OC)c(NCCN(C)C)c2)cc2nccn12 [Example 17-8]
2000 to 10000 nM	CCSc1nc(-c2ccc(NCc3ccccc3)c(OC)c2)cc2nccn12 [Example 17-9]
500 to 2000 nM	CCSc1nc(-c2ccc(OCCOC)c(OC)c2)cc2nccn12 [Example 17-10]
< 500 nM	CCSc1nc(-c2ccc(NCCCn3ccnc3)c(OC)c2)cc2nccn12 [Example 17-11]
< 500 nM	CCSc1nc(-c2ccc(NCCCN3CCOCC3)c(OC)c2)cc2nccn12 [Example 17-12]
< 500 nM	CCSc1nc(-c2ccc(NCCCN(C)C)c(OC)c2)cc2nccn12 [Example 17-13]
500 to 2000 nM	CCSc1nc(-c2ccc(NC)c(OC)c2)cc2nccn12 [Example 17-14]
< 500 nM	CCSc1nc(-c2ccc(N(C)C)c(OC)c2)cc2nccn12 [Example 17-15]
< 500 nM	COc1ccc(Nc2nc(-c3ccc(N4CCCC4)c(OC)c3)cc3nccn23)cc1 [Example 17-16]
< 500 nM	CCSc1nc(-c2ccc(N(C)CCCN3CCOCC3)c(OC)c2)cc2nccn12 [Example 17-17]

Same assay, conditions: Table 17; IC50 classes; read-out: Activity grade

IC50	Compound
500 to 2000 nM	COc1ccc(-c2cc3nccn3c(NC(=O)c3ccccc3)n2)cc1OC [Example 16]
< 500 nM	COc1ccc(-c2cc3nccn3c(Sc3ccc(CCC(=O)N4CCOCC4)cc3)n2)cc1OC [Example 18]
< 500 nM	COc1ccc(-c2cc3nccn3c(Sc3ccc4c(c3)CCC(C(=O)O)C4)n2)cc1OC (stereo not drawn) [Example 19]
< 500 nM	COc1ccc(-c2cc3nccn3c(Sc3ccc(CCC(N)=O)cc3)n2)cc1OC [Example 20]
< 500 nM	CNC(=O)CCc1ccc(Sc2nc(-c3ccc(OC)c(OC)c3)cc3nccn23)cc1 [Example 21]
500 to 2000 nM	COc1ccc(-c2cc3nccn3c(NC(=O)Nc3ccccc3)n2)cc1OC [Example 22]
< 500 nM	COc1ccc(-c2cc3nccn3c(Sc3ccc(CCC(=O)NCCC#N)cc3)n2)cc1OC [Example 23]
< 500 nM	COc1ccc(-c2cc3nccn3c(Sc3ccc(CCc4nnn[nH]4)cc3)n2)cc1OC [Example 24]
< 500 nM	COc1ccc(-c2cc3nccn3c(SCCN)n2)cc1OC [Example 25]
2000 to 10000 nM	COc1ccc(-c2cc3nccn3c(SCC(=O)O)n2)cc1OC [Example 26]
< 500 nM	CCSc1nc(-c2ccc(OC)c([N+](=O)[O-])c2)cc2nccn12 [Example 27]
500 to 2000 nM	CCSc1nc(-c2ccc(OC)c(OC)c2)cc2nc(C(N)=O)cn12 [Example 28]
< 500 nM	COc1ccc(-c2cc3nccn3c(Nc3ccc(CC(N)C(=O)OC(C)C)cc3)n2)cc1OC (stereo not drawn) [Example 29]
< 500 nM	COc1ccc(-c2cc3nccn3c(Nc3ccc(CC(N)C(=O)O)cc3)n2)cc1OC (stereo not drawn) [Example 30]
< 500 nM	COc1ccc(-c2cc3nccn3c(Nc3ccccc3-c3nnn[nH]3)n2)cc1OC [Example 31]
< 500 nM	COc1ccc(-c2cc3nccn3c(Nc3ccc(N(C)C)cc3C(N)=O)n2)cc1OC [Example 32]
< 500 nM	COc1ccc(-c2cc3nccn3c(Nc3ccc(N)cc3C(N)=O)n2)cc1OC [Example 33]
500 to 2000 nM	COc1ccc(-c2cc3nccn3c(-c3ccccc3)n2)cc1OC [Example 34]
2000 to 10000 nM	COc1ccc(-c2cc3nccn3c(Cc3ccccc3)n2)cc1OC [Example 35]
2000 to 10000 nM	COc1ccc(-c2cc3nccn3c(N(C)c3ccncc3)n2)cc1OC [Example 36]
< 500 nM	COc1cc(-c2cc3nccn3c(Nc3ncccc3C(N)=O)n2)ccc1N1CCOCC1 [Example 38]
500 to 2000 nM	COc1ccc(-c2cc3nccn3c(Nc3ccccc3)n2)cc1N [compound 1]
2000 to 10000 nM	COc1ccc(-c2cc3nccn3c(N(C)c3ccccn3)n2)cc1OC [compound 4]
< 500 nM	COc1ccc(-c2cc3nccn3c(Nc3ccc(C(=O)N(C)CCO)cc3)n2)cc1OC [compound 6]
2000 to 10000 nM	Cc1c(N)cccc1Oc1nc(-c2ccc(OC3CCCC3)c(O)c2)cc2ncnn12 [compound 15]
< 500 nM	COc1ccc(-c2cc3nccn3c(Sc3ccc(CCC(=O)N(C)C)cc3)n2)cc1OC [compound 17]

Same assay, conditions: in vitro; compounds as yielded by solid phase synthesis, purity about 40 to 90%; read-out: Activity grade (IC50 class)

IC50	Compound
< 500 nM	Cc1c(N)cccc1Oc1nc(-c2ccc(O)c(O)c2)cc2ncnn12 [Example 14]
< 500 nM	COc1ccc(-c2cc3nccn3c(NC(=O)c3ccccc3)n2)cc1OC [Example 16]
< 500 nM	CCSc1nc(-c2ccc(O)c(OC)c2)cc2nccn12 [material for Example 3, 4-(5-Ethylsulfanyl-imidazo[1,2-c]pyrimidin-7-yl)-2-methoxyphenol]
2000 to 10000 nM	CCSc1nc(-c2ccc(O)c(O)c2)cc2nccn12 [material for Example 6, 4-(5-Ethylsulfanyl-imidazo[1,2-c]pyrimidin-7-yl)-benzene-1,2-diol]
